According to patent publication US5608084A, “Lactones with antioxidising and hypolipidaemic activity useful in the therapy of the atherosclerosis” (priority 1994, dated 1997):
Read-outs that look alike come from different tables or passages of the source.

What was measured:
[1] = test system: HepG2; test: Incorporation of 14C-acetate in the lipidic classes in HepG2 cells (hypolipidaemic activity); assay type: cell-based, human; conditions: for Incorporation of 14C-acetate: Cholesterol / Incorporation of 14C-acetate: Esters of Cholesterol / Incorporation of 14C-acetate: Fatty acids / Incorporation of 14C-acetate: Phospholipids / Incorporation of 14C-acetate: Triglycerides: per culture plate; for inhibition at 1 µM / inhibition at 10 µM: Homo sapiens, HepG2; for interference with the synthesis of cholesterol: compared with gemfibrozil and probucol; for influence on the synthesis of the fatty acids and of the phospholipids: compared with probucol and gemfibrozil; for activity as regards the synthesis of the esters of the cholesterol: summary of Table 4
Procedure: The hypolipidaemic activity of some lactones of general formula I has been evaluated in vitro by testing their influence on the synthesis of the cell lipids like cholesterol, fatty acids, triglycerides, phospholipids and esters of the cholesterol, described by Barnhard J. W. in Amer. J. Cardiol., 62, 52B-56B, (1988).
The synthesis of the lipids has been studied by incubating cells coming from a human hepatocarcinoma (HepG2-American Type Culture Collection) in presence of ^14 C-acetate (Amersham) and by measuring the incorporation of the radioactive precursor in the main lipidic classes by means of chromatographic separation on silica gel (Merck F254), according to the method described by Skipski V. P. et al. in Biochem. Biophys. Acta, 106, 386-396, (1965) and by means of scintillographic dosage with β-counter Beckman scintillator, according to the method reported by Gherardi E. and Calandra S. in Lipids, 15, 108-112, (1980).
The data reported in tables 4 and 5 refer to the incorporation of ^14 C-acetate in the various lipidic classes, expressed as radioactivity in count per minute (cpm) for culture plate, for some lactones, in comparison with the probucol and the gemfibrozil, used as positive controls and with the solvent ethanol, used as negative control.
The percents in brackets express the lowering of the ^14 C-acetate in the various lipidic classes referred to the control, i.e. to the physiological solution. […] The confluence cells have been exposed to the products tested for 24 hours; at the end of the incubation the monolayer has been solubilized and the optical density of the lysate at λ260 nm has been measured. The value of the absorbance is direct function of the amount of the macromolecules present and therefore indirectly of the number of the cells.

[2] = test system: B-100 apolipoprotein; test: Fragmentation of B-100 apolipoprotein on SDS-PAGE (oxidative modification of LDL); assay type: biochemical, human; conditions: 10 μM
From the text: The determination of the melting point has been carried out by means of a capillary melting point apparatus Electrothermal, without any correction. The I.R. spectrum has been obtained by means of a Perkin-Elmer rood. 963/G spectrophotometer generally, when not otherwise specified, preparing the specimen in potassium bromide and recording the spectrum between 4000 and 600 nm. […] The mass spectrum has been recorded by using a VG 7070E mass spectrometer, at a 70 eV ionization voltage and with a 6 Kvolt acceleration voltage. […] Chem., 43, 2923, (1978). […] The antioxidant activity has been evaluated through the capability of some lactones of formula I to prevent and/or delay the oxidative modification of the lipoproteins (LDL), caused by a chemical method by incubating native LDL with cupric ions, according to the method described by Steinbrecher U. P. in J. Biol. Chem., 262, 3603-3608, (1987). The evaluation of the oxidation degree of the LDL through the monitoring of the concentration of aldehydes derived from the degradation of the lipidic peroxides and the observation of the modifications of the B-100 apolipoprotein represent the used experimental approach. The antioxidant activity of the lactones has been expressed in terms of duration of the latency period that represents a parameter of the resistance to the oxidation of the LDL. The LDL have been isolated from the human plasma obtained from blood collected, in the presence of EDTA, from healty volunteers fasting from 8 hours according to the method described by Havel H. in J. Clin. Invest., 34, 1345-1353, (1955). The solution, dialyzed in Visking-Serva dialysis tubes at 4° C. for 72 hours in phosphate buffer (PBS) added with EDTA (0.24 mM), has been filtered through a membrane with 0.45μ porosity (Millex HV Filters) and the proteic concentration has been determined according to the method described by Lowry O. et al. in J. Biol. Chem., 193, 265-275, (1951). The solution has been diluted with PBS-EDTA at a concentration of 500 μg protein/ml and the obtained LDL have been incubated at 42° C. for 45 minutes in presence of the lactones solubilized in ethanol (1.7 μl/ml LDL). At the end of the incubation the solutions have been placed on ice for 45 minutes and dialyzed at 4° C. for 36 hours in PBS. The oxidation of the LDL has been carried out with 5 μM cupric sulfate at 37° C. and stopped at the experimental times by cooling at 4° C. and adding 0.24 mM of EDTA. The solutions of LDL have been kept at 4° C. and sheltered from light during the experimental procedure. […] 52, (1978).
The inhibition of the oxidative process has been evaluated also by means of the study of the fragmentation of the B-100 apolipoprotein through the electrophoretic analysis on polyacrylamide gel in presence of sodium dodecylsulfate (SDS-PAGE), according to the method described by Laemmli U. K., in Nature, 227, 680, (1970). The quantitative evaluation of the disappearance of the B-100 apolipoprotein has been carried out by densitometric unidimensional measurement of the absorbance at λ=633nm, on an electrophoretic plate 13.5 cm long, after colouring with Coomassie Brillant Blue. The reagents used for the preparation and coloration of the gels, the reference standard (SDS-PAGE standards Broad Range--Cat. no. 161-0317), the gradient former (gradient former Bio-Rad Mod. 385) and the electrophoretic cell (Protean II) are Bio-Rad products; the feeder is a LKB Pharmacia Mod. 2197, the densitometer is a Pharmacia LKB Mod. 2222-020 Ultrascan XL with integrators LKB 2220 and LKB 2190 GelScan Software Package.

[3] = 1 μM, read-out: Incorporation of 14C-acetate: Cholesterol, percent referred to physiological solution
[4] = 1 μM, read-out: Incorporation of 14C-acetate: Esters of Cholesterol, percent referred to physiological solution
[5] = 1 μM, read-out: Incorporation of 14C-acetate: Fatty acids, percent referred to physiological solution
[6] = 1 μM, read-out: Incorporation of 14C-acetate: Phospholipids, percent referred to physiological solution
[7] = 1 μM, read-out: Incorporation of 14C-acetate: Triglycerides, percent referred to physiological solution
[8] = 10 μM, read-out: Incorporation of 14C-acetate: Cholesterol, percent referred to physiological solution
[9] = 10 μM, read-out: Incorporation of 14C-acetate: Esters of Cholesterol, percent referred to physiological solution
[10] = 10 μM, read-out: Incorporation of 14C-acetate: Fatty acids, percent referred to physiological solution
[11] = 10 μM, read-out: Incorporation of 14C-acetate: Phospholipids, percent referred to physiological solution
[12] = 10 μM, read-out: Incorporation of 14C-acetate: Triglycerides, percent referred to physiological solution

Row | SMILES | influence on the synthesis of the triglycerides [1] | Incorporation of 14C-acetate: Cholesterol ([1]; 1 μM) [cpm] | Incorporation of 14C-acetate: Esters of Cholesterol ([1]; 1 μM) [cpm] | Incorporation of 14C-acetate: Fatty acids ([1]; 1 μM) [cpm] | Incorporation of 14C-acetate: Phospholipids ([1]; 1 μM) [cpm] | Incorporation of 14C-acetate: Triglycerides ([1]; 1 μM) [cpm] | Incorporation of 14C-acetate: Cholesterol ([1]; 10 μM) [cpm] | Incorporation of 14C-acetate: Esters of Cholesterol ([1]; 10 μM) [cpm] | Incorporation of 14C-acetate: Fatty acids ([1]; 10 μM) [cpm] | Incorporation of 14C-acetate: Phospholipids ([1]; 10 μM) [cpm] | Incorporation of 14C-acetate: Triglycerides ([1]; 10 μM) [cpm] | inhibition at 1 µM [1, 3] [%] | inhibition at 1 µM [1, 4] [%] | inhibition at 1 µM [1, 5] [%] | inhibition at 1 µM [1, 6] [%] | inhibition at 1 µM [1, 7] [%] | inhibition at 10 µM [1, 8] [%] | inhibition at 10 µM [1, 9] [%] | inhibition at 10 µM [1, 10] [%] | inhibition at 10 µM [1, 11] [%] | further results
1 | Cc1c(C)c2c(c(C)c1O)CCC(C)OC(=O)C(C)(C)CCCO2 (centres unmarked) [Example 3, 6,6,9,13,15,16-Hexamethyl-14-hydroxy-2,8-dioxabicyclo[10.4.0]hexadec-12,14,16-trien-7-one] | practically absent | 23364 | 1347 | 473 | 181053 | 109681 | 19034 | 1107 | 368 | 195274 | 104271 | 26 | 67 | 29 | 27 | 1 | 40 | 73 | 45 | 22 | inhibition at 10 µM [1, 12]: 4%; interference with the synthesis of cholesterol [1]: comparable to that of gemfibrozil and lower than that of the probucol; influence on the synthesis of the fatty acids and of the phospholipids [1]: practically show the same influence; activity as regards the synthesis of the esters of the cholesterol [1]: 60-75%; Area of the B-100 apolipoprotein peak ([2]; 0 minutes): 2.2 AU/mm; Area of the B-100 apolipoprotein peak ([2]; 60 minutes): 2.0 AU/mm; Area of the B-100 apolipoprotein peak ([2]; 90 minutes): 1.9 AU/mm; Area of the B-100 apolipoprotein peak ([2]; 120 minutes): 1.6 AU/mm; Area of the B-100 apolipoprotein peak ([2]; 150 minutes): 1.5 AU/mm; Area of the B-100 apolipoprotein peak ([2]; 180 minutes): 1.5 AU/mm; Area of the B-100 apolipoprotein peak ([2]; 360 minutes): 1.5 AU/mm
2 | CCC1CCc2c(C)c(O)c(C)c(C)c2OCCCC(C)(C)C(=O)O1 (centres unmarked) [Example 6, 9-Ethyl-14-hydroxy-6,6,13,15,16-pentamethyl-2,8-dioxabicyclo[10.4.0]hexadec-12,14,16-trien-7-one] | practically absent | 23597 | 1098 | 386 | 160997 | 107497 | 17458 | 1148 | 332 | 177323 | 110154 | 25 | 73 | 42 | 35 | 1 | 45 | 72 | 50 | 29 | inhibition at 10 µM [1, 12]: -1%; interference with the synthesis of cholesterol [1]: comparable to that of gemfibrozil and lower than that of the probucol; influence on the synthesis of the fatty acids and of the phospholipids [1]: practically show the same influence; activity as regards the synthesis of the esters of the cholesterol [1]: 60-75%; Area of the B-100 apolipoprotein peak ([2]; 0 minutes): 2.5 AU/mm; Area of the B-100 apolipoprotein peak ([2]; 60 minutes): 2.3 AU/mm; Area of the B-100 apolipoprotein peak ([2]; 90 minutes): 2.1 AU/mm; Area of the B-100 apolipoprotein peak ([2]; 120 minutes): 2.0 AU/mm; Area of the B-100 apolipoprotein peak ([2]; 150 minutes): 1.7 AU/mm; Area of the B-100 apolipoprotein peak ([2]; 180 minutes): 1.6 AU/mm; Area of the B-100 apolipoprotein peak ([2]; 360 minutes): 1.6 AU/mm
